# Test results from patent publication US8470841B2, “Heterocyclic compounds, processes for their preparation, medicaments comprising these compounds, and the use thereof” (Sanofi, priority 2008, dated 2013).
# Where two headings read alike, the source gives them in different places.
# Legend:
# human ACC2 = human ACC2 (Homo sapiens (Human), UniProt O00763); assay type: biochemical; conditions: for IC50: human ACC2, read-out: IC50 (hACC2)
# rACC2 = rACC2 (Rattus norvegicus, UniProt O70151); test: Enzymatic assay of ACC inhibitors, rat ACC2; assay type: biochemical
# Protocol: (§1) The enzymatic activity of ACC and its inhibition by test substances were determined by a luminometric assay. The reaction mixture contained 50 mM tris acetate (Merck, #1.08382.1000), pH 7.5, 250 μM acetyl coenzyme A (Sigma, #A2181),16 mM NaHCO3 (Merck, #1.06329.0500), 0.9 mg/ml bovine serum albumin (Sigma, #A8806), 25 μM ATP (Sigma, #A7699), 1.1 μM β-mercaptoethanol (Roth, #4227,1), 4.3 mM magnesium acetate ((Merck, #1.05819.0250), 10 mM sodium citrate (Merck, #1.06448.0500) and 200-400 ng of the ACC preparations. The mixture also contained a test compound. The test compounds were each dissolved in 10 mM DMSO and were assayed at final concentrations of 0 μM, 0.01 μM, 0.03 μM, 0.1 μM, 0.3 μM, 1 μM, 3 μM, 10 μM, 30 μM and 100 μM. The final concentration of the DMSO in the assay was 0.1% (v/v). The reaction was started by adding ACC and was carried out at 37° C. for 90 min. The reaction was then stopped by adding 150 μl of 0.5 M tris acetate. 10 μl of the mixture were removed and mixed with 90 μl of ATP monitoring reagent (Cambrex, #LT27-002). After incubation for 10 min, the luminescence was measured in a luminometer (Tecan Genios Pro).
# The crude luminescence data were transferred into a Microsoft Excel file. The luminescence measured in the absence of ACC in the reaction mixture was defined as 100%. The value in the presence of ACC with 0 μM test compound was set at 0%. Dose-effect plots were calculated with the XL.Fit program as specified by the producer (IDBS). The IC50 of a test substance was the concentration of the test compound at which a luminescence of 50% was measured.
# rACC1 = rACC1 (Rattus norvegicus (Rat), UniProt P11497); test: Enzymatic assay of ACC inhibitors, rat ACC1; assay type: biochemical
# Protocol: as §1, with “10 μl of the mixture were removed and mixed with 90 μl of ATP monitoring reagent (Cambrex, #LT27-002).” left out
# The crude luminescence data were transferred into a Microsoft Excel file. The luminescence measured in the absence of ACC in the reaction mixture was defined as 100%. […] Dose-effect plots were calculated with the XL.Fit program as specified by the producer (IDBS). […]
# [1] = tested on: C2C12 mouse muscle cell line; test: Palmitate oxidation in a mouse muscle cell line (C2C12); assay type: cell-based; conditions: 10 μM
# Protocol: In another pharmacological test both compounds were tested for palmitate oxidation in a mouse muscle cell line (C2C12) which is also mediated by ACC inhibition.
# human ACC1 = human ACC1 (Homo sapiens (Human), UniProt Q13085)
# [2] = relative to comparative example 59
# [3] = relative to comparative example 59, respective rat ACC isoforms
# human ACC2, sequence (O00763 151-2458): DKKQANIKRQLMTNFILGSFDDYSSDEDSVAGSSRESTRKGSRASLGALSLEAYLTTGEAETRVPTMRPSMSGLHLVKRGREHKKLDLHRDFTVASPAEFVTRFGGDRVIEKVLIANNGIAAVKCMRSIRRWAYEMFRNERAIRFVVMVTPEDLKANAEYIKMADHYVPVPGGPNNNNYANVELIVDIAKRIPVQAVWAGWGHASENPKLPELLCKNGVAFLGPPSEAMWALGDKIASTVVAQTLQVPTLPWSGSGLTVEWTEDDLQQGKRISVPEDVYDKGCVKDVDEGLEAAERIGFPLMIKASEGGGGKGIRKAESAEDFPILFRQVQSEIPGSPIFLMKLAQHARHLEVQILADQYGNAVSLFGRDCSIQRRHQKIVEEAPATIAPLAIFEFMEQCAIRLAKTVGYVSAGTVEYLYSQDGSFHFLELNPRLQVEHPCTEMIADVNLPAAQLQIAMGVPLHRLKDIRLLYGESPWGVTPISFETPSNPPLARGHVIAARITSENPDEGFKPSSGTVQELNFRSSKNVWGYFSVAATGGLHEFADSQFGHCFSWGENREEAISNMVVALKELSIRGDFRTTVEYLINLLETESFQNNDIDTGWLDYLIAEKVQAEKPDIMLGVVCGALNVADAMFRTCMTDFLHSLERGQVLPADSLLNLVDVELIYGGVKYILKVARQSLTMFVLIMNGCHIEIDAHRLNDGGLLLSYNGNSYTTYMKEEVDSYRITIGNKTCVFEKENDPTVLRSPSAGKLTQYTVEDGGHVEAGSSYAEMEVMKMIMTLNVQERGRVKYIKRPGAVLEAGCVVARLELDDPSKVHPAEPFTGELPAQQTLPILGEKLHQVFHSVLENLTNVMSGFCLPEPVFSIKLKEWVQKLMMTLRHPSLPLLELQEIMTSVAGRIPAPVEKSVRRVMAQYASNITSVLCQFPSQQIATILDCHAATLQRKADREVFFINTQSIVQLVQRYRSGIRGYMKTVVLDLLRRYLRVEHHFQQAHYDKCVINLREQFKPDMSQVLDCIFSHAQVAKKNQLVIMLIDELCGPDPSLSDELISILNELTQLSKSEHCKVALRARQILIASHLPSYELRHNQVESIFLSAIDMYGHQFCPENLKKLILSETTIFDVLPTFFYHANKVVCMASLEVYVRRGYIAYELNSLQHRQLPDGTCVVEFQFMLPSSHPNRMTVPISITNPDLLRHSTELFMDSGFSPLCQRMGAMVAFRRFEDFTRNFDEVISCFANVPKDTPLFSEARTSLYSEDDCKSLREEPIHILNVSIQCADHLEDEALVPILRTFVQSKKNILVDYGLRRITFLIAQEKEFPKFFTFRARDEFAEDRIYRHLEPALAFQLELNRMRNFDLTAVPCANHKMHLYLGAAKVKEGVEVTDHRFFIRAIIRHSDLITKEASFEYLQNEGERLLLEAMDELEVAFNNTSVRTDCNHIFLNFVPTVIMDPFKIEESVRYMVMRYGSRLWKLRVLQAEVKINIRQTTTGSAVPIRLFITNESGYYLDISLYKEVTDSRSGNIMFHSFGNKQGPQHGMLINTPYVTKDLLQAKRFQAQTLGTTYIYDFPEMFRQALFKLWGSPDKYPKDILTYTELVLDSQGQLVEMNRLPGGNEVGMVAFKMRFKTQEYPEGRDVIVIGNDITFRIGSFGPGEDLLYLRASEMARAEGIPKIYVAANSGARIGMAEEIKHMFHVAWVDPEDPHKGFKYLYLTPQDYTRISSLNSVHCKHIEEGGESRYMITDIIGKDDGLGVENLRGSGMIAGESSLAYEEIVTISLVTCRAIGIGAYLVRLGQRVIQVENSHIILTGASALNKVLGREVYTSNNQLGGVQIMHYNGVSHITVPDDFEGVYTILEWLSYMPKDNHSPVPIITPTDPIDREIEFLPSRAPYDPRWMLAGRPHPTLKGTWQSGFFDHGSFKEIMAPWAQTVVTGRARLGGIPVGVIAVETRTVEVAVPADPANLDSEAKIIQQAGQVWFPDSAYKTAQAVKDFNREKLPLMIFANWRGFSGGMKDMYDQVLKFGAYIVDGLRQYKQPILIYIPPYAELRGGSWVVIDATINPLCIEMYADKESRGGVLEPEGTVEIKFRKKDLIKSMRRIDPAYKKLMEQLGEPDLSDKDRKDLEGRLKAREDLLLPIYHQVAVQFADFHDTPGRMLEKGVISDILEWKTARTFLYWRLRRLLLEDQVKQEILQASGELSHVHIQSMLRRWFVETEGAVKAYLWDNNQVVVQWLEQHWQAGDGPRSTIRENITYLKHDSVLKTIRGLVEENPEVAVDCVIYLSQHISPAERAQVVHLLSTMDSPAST
# rACC2, sequence (O70151 1-2456): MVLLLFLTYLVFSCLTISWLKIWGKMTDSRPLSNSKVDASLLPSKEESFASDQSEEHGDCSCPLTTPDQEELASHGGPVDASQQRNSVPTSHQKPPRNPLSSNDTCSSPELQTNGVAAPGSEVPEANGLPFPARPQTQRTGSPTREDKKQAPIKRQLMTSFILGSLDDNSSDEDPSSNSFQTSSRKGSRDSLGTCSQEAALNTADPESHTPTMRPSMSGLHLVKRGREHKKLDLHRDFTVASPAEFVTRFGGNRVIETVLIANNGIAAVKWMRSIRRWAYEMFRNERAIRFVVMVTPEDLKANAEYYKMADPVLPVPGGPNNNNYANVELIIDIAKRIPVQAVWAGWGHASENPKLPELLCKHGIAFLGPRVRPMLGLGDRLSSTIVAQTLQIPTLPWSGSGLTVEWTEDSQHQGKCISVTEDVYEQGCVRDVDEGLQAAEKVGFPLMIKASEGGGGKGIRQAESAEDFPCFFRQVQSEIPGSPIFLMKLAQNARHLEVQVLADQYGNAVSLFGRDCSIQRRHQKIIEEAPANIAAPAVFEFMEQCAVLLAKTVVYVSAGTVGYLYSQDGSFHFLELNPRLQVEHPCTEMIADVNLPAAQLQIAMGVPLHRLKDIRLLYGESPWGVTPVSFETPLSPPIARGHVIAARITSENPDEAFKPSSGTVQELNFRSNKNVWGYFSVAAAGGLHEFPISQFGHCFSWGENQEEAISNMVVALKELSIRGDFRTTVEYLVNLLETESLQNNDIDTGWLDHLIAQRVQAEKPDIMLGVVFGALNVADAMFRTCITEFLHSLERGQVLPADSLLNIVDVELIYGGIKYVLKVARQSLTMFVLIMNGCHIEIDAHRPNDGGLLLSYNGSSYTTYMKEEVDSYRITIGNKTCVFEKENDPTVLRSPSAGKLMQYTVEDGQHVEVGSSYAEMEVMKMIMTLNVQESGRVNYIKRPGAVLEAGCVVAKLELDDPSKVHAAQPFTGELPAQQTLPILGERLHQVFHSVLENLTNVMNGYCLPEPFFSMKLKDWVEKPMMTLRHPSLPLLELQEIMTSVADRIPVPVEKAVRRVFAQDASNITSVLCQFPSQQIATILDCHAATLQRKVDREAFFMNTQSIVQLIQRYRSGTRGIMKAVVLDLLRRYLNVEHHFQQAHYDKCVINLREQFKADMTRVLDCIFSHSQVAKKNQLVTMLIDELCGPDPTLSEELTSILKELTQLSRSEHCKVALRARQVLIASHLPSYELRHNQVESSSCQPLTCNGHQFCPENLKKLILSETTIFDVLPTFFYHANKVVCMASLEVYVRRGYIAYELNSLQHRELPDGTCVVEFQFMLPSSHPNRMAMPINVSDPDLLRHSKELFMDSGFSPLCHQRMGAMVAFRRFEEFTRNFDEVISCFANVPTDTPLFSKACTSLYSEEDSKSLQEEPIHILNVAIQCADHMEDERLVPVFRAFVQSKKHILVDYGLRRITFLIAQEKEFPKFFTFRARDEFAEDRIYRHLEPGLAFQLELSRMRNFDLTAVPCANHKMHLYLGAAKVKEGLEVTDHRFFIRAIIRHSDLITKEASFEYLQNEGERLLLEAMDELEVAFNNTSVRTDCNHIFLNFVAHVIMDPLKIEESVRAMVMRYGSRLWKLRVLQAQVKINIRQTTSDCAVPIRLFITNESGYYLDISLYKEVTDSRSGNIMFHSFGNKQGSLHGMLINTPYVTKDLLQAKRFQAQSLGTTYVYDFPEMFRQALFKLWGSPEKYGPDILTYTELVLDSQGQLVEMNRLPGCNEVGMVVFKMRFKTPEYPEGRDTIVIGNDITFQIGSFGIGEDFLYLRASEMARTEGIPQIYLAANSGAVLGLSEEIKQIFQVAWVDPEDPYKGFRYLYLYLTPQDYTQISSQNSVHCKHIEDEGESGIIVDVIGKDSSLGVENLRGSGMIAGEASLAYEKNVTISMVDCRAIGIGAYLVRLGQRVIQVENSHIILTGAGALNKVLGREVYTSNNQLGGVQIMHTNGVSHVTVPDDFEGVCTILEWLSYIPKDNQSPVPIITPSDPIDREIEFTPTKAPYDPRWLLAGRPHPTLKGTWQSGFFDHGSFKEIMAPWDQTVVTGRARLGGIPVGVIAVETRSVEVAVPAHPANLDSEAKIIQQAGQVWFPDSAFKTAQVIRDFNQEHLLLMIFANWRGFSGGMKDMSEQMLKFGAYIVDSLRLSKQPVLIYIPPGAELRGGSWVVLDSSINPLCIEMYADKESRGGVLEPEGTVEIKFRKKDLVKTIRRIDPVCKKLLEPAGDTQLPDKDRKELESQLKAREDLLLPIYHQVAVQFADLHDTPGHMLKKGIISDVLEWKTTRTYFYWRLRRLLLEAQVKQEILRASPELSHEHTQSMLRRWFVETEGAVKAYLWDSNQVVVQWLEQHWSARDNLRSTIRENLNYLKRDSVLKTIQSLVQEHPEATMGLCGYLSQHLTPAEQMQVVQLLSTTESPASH
SMILES,IC50 (human ACC2) [nM],also measured
"CC(=O)NC(C)CCc1ccc(Oc2ccc(OC3CCCC3)cn2)cc1 (centres unmarked) [Example 2, N-{3-[4-(5-Cyclopentyloxypyridin-2-yloxy)phenyl]-1-methylpropyl}acetamide]",140,–
"CC(=O)NCCC[C@H]1OC[C@H](Oc2ccc(OCc3ccccc3)cc2)CO1 [Example 4, trans-N-{3-[5-(4-benzyloxyphenoxy)-[1,3]dioxan-2-yl]propyl}acetamide]",400,–
"CC(=O)NCCC[C@H]1OC[C@H](Oc2ccc(OC3CCCC3)cc2)CO1 [Example 6, trans-N-{3-[5-(4-Cyclopentyloxyphenoxy)-[1,3]dioxan-2-yl]propyl}acetamide]",200,–
"CC(=O)NC(C)CCc1ccc(Oc2ccc(OCc3ccccc3)cn2)cc1 (centres unmarked) [Example 9, N-{3-[4-(5-Benzyloxypyridin-2-yloxy)phenyl]-1-methylpropyl}acetamide]",140,–
"CCCOc1ccc(Oc2ccc(CCC(C)NC(C)=O)cc2)nc1 (centres unmarked) [Example 11, N-{1-Methyl-3-[4-(5-propoxypyridin-2-yloxy)phenyl]propyl}acetamide]",140,–
"CC(=O)NC(C)CCc1ccc(Oc2ccc(OCC3CCC3)cn2)cc1 (centres unmarked) [Example 12, N-{3-[4-(5-Cyclobutylmethoxypyridin-2-yloxy)phenyl]-1-methylpropyl}acetamide]",50,–
"CC(=O)NCCC[C@H]1OC[C@H](Oc2ccc(OCc3ccccc3)cn2)CO1 [Example 17, trans-N-{3-[5-(5-benzyloxypyridin-2-yloxy)-[1,3]dioxan-2-yl]propyl}acetamide]",50,–
"CC(=O)N[C@@H](C)CCc1ccc(Oc2ccc(OCc3ccccc3)cn2)cc1 [Example 19, N—{(S)-3-[4-(5-Benzyloxypyridin-2-yloxy)phenyl]-1-methylpropyl}acetamide]",100,–
"CC(=O)NC(C)CCc1ccc(Oc2ccc(OC3CCOC3)cn2)cc1 (centres unmarked) [Example 20, N-(1-Methyl-3-{4-[5-(tetrahydrofuran-3-yloxy)pyridin-2-yloxy]phenyl}propyl)acetamide]",3600,–
"CC(=O)NCCC[C@H]1OC[C@H](Oc2ccc(OC(C)C)cn2)CO1 [Example 23, trans-N-{3-[5-(5-isopropoxypyridin-2-yloxy)-[1,3]dioxan-2-yl]-propyl}acetamide]",2000,–
"CC(=O)NCCC[C@H]1OC[C@H](Oc2ncc(OC(C)C)cc2Cl)CO1 [Example 25, trans-N-{3-[5-(3-chloro-5-isopropoxypyridin-2-yloxy)-[1,3]dioxan-2-yl]propyl}acetamide]",380,–
"CC(=O)NC(C)COc1ccc(Oc2ccc(OC(C)C)cn2)cc1 (centres unmarked) [Example 27, N-{2-[4-(5-Isopropoxypyridin-2-yloxy)phenoxy]-1-methylethyl}acetamide]",1300,–
"CC(=O)N[C@@H](C)COc1ccc(Oc2ccc(OC(C)C)cn2)cc1 [Example 29, N—{(S)-2-[4-(5-Isopropoxypyridin-2-yloxy)phenoxy]-1-methylethyl}acetamide]",1200,–
"CC(=O)NC(C)CCc1ccc(Oc2ncc(OC(C)C)cc2Cl)cc1 (centres unmarked) [Example 32, N-{3-[4-(3-Chloro-5-isopropoxypyridin-2-yloxy)phenyl]-1-methylpropyl}acetamide]",1300,–
"CC(=O)NC(C)CCc1ccc(Oc2ccc(OC(C)C)nc2)cc1 (centres unmarked) [Example 33, N-{3-[4-(6-Isopropoxypyridin-3-yloxy)phenyl]-1-methylpropyl}acetamide]",60,–
"CC(=O)N[C@@H](C)CCc1ccc(Oc2ccc(OC(C)C)nc2)cc1 [Example 35, N—{(S)-3-[4-(6-Isopropoxypyridin-3-yloxy)phenyl]-1-methylpropyl}acetamide]",30,"times higher potency than example 59, human ACC2 (human ACC2; [2]): approx. 5 times; IC50 (rACC2; rat ACC2, read-out: IC50 rACC2): 400 nM; times higher potency than example 59, rat ACC2 (rACC2; [3]): > 3 times; IC50 (rACC1; rat ACC1): 170 nM; times higher potency than example 59, rat ACC1 (rACC1; [3]): > 3 times; stimulation of cellular fat (palmitate) oxidation [1]: 1.7 fold; IC50 (human ACC1; read-out: IC50 hACC (human ACC1), human ACC1, table row printed as hACC): 190 nM; times higher potency than example 59, human ACC1 (human ACC1; [2]): ~40 times"
"CC(=O)NC(C)CCc1ccc(Oc2ccc(OCc3ccccc3)nc2)cc1 (centres unmarked) [Example 36, N-{3-[4-(6-Benzyloxypyridin-3-yloxy)phenyl]-1-methylpropyl}acetamide]",70,–
"CC(=O)NC(C)CCc1cnc(Oc2ccc(OCc3ccccc3)nc2)nc1 (centres unmarked) [Example 37, N-{3-[2-(6-Benzyloxypyridin-3-yloxy)pyrimidin-5-yl]-1-methylpropyl}acetamide]",5900,–
"CC(=O)N[C@@H](C)COc1ccc(Oc2ccc(OC(C)C)cc2)nc1 [Example 39, N—{(S)-2-[6-(4-Isopropoxyphenoxy)pyridin-3-yloxy]-1-methylethyl}acetamide]",2500,–
"CC(=O)NC(C)CCc1ccc(Oc2cnc(OC(C)C)nc2)cc1 (centres unmarked) [Example 40, N-{3-[4-(2-Isopropoxypyrimidin-5-yloxy)phenyl]-1-methylpropyl}acetamide]",740,–
"CC(CCc1ccc(Oc2ccc(OC(C)C)nc2)cc1)NC(=O)C1CC1 (centres unmarked) [Example 44, N-{3-[4-(6-Isopropoxypyridin-3-yloxy)phenyl]-1-methylpropyl}cyclopropanecarboxamide]",90,–
"CC(CCc1ccc(Oc2ccc(OC(C)C)nc2)cc1)NC=O (centres unmarked) [Example 45, N-{3-[4-(6-Isopropoxypyridin-3-yloxy)phenyl]-1-methylpropyl}formamide]",670,–
"COC(=O)NC(C)CCc1ccc(Oc2ccc(OC(C)C)nc2)cc1 (centres unmarked) [Example 46, Methyl {3-[4-(6-isopropoxypyridin-3-yloxy)phenyl]-1-methylpropyl}carbamate]",210,–
"CC(CCc1ccc(Oc2ccc(OC(C)C)nc2)cc1)NC(N)=O (centres unmarked) [Example 47, {3-[4-(6-Isopropoxypyridin-3-yloxy)phenyl]-1-methylpropyl}urea]",150,–
"CC(CCc1ccc(Oc2ccc(OC(C)C)nc2)cc1)NC(=O)CO (centres unmarked) [Example 48, 2-Hydroxy-N-{3-[4-(6-isopropoxypyridin-3-yloxy)phenyl]-1-methylpropyl}acetamide]",900,–
"CC(=O)NC(C)CCc1ccc(Oc2cnc(OC(C)C)cn2)cc1 (centres unmarked) [Example 49, N-{3-[4-(5-Isopropoxypyrazin-2-yloxy)phenyl]-1-methylpropyl}acetamide]",1200,–
"CC(=O)NC(C)CCc1ccc(Oc2ccc(OCC3CC3)nc2)cc1 (centres unmarked) [Example 50, N-{3-[4-(6-Cyclopropylmethoxypyridin-3-yloxy)phenyl]-1-methylpropyl}acetamide]",170,–
"CC(=O)NC(C)CCC1CCC(Oc2ccc(OC(C)C)nc2)CC1 (centres unmarked) [Example 52, N-{3-[4-(6-Isopropoxypyridin-3-yloxy)cyclohexyl]-1-methylpropyl}acetamide]",80,–
"CC(=O)N[C@@H](C)COc1ccc(Oc2ccc(OC(C)C)cc2)cc1 [Example 59, N—{(S)-2-[4-(4-Isopropoxyphenoxy)phenoxy]-1-methylethyl}acetamide, reference compound]",–,IC50 (rACC2): 1500 nM; stimulation of cellular fat (palmitate) oxidation [1]: no effect
